According to paper PMC8146289, “Tissue Distribution of Oleocanthal and Its Metabolites after Oral Ingestion in Rats” (Antioxidants, 2021):

Columns and labels:
[1] = Tissue distribution of OLC and its metabolites in rats after oral gavage of OLC-enriched refined olive oil (LC-ESI-LTQ-Orbitrap-MS); format: in vivo, Male Sprague Dawley rats; conditions: for plasma and tissues in which the compound was detected: liver, kidney, spleen, lungs, heart, brain, thyroid, skin, 1, 2, 4.5 h after oral ROO with OLC; for decrease of OLC concentration in the intestine / decrease of OLC concentration in the stomach: relative to the maximum at 1 h; for decrease of OLC concentration in the stomach: stomach samples
Protocol: The studies were conducted following a protocol approved by the Animal Experimentation Ethics Committee of the University of Barcelona, Spain (trial no. CEEA 124/16) and Generalitat de Catalunya (no. 6435). Male Sprague Dawley rats (body weight 249 ± 8 g) were purchased from Envigo RMS Spain S.L. (Sant Feliu de Codines, Barcelona, Spain). The animals were acclimatized in animal housing in an air-conditioned room at 22 ± 2 °C under a 12 h/12 h cycle of light and darkness and given free access to a commercial diet (Teklad 2014, Envigo RMS Spain S.L.) and water for at least 10 days before the study. The rats were fasted for over 12 h before the experiments but were allowed free access to water.
Before the distribution experiment, the ROO (vehicle) was analyzed by LC-ESI-LTQ-Orbitrap-MS to make sure it was free of phenolic compounds. The liquid–liquid extraction of phenolic compounds of ROO was performed following the previously described procedures. The chromatographic and mass spectrometer conditions were the same as those used for the identification of metabolites (Section 2.3). After verifying that the ROO was free of phenols, OLC was added to obtain a final concentration of 0.3 mg/mL. The OLC concentration was chosen while taking into account both the OLC concentration in commercial EVOO (~300 mg/kg) and the daily ingestion of EVOO recommended by the European Food Safety Authority of at least 5 mg of hydroxytyrosol and its derivatives per 20 g of olive oil.
The rats were divided into four groups—a control group (no administration) and three dosed groups—to study the distribution of OLC at three different time points: 1, 2 and 4.5 h post-administration. On treatment day, the rats received the ROO containing OLC by oral gavage (2.5 mL/300 g body weight). The volume for gavage administration was established following a good practice guide for substance administration and was lower than the maximum volume of lipid vehicles per kg of rat body weight that prevented elevated plasma corticosterone levels.
The rats were anesthetized with isoflurane (IsoFloR, Veterinaria Esteve, Barcelona, Spain) and euthanized by exsanguination via cardiac puncture at 1, 2 or 4.5 h after ROO ingestion. The control group was maintained under fasting conditions without olive oil ingestion and then similarly euthanized. The blood was collected in EDTA tubes, and plasma samples were obtained by centrifugation (3000× g for 10 min at 4 °C) and stored at −80 °C until analysis. Different tissues and organs (heart, liver, spleen, lungs, kidney, brain, thyroid, stomach, small intestine and skin) were removed from the rats and placed in pre-weighed tubes. The small intestine samples consisted of a pool of duodenum, jejunum and ileum segments, but the main region used was the jejunum. The procedure was to locate the plica duodenocolica and, from there up to about 5 cm of the intestine before reaching the cecum, to remove it from the animal. The collected tissues were washed with physiological serum at 37 °C and placed between absorbent paper to remove the rest of the serum. In the case of the intestine, the luminal contents were first removed by applying pressure with the index finger and thumb, and then the lumen was washed by perfusing with the physiological serum at 37 °C. It was then placed between absorbent paper to remove the remains of the washings. In order to avoid compound oxidation, the collected tissues were kept on ice at all times. Finally, the samples were weighed and stored at −80 °C until analysis. For each group, four animals were used.
The tissues were homogenized with a small tissue disruptor (T 10 basic ULTRA-TURRAX®, IKA laboratory technology, Staufen Germany) in a 1:1 ratio (w/v) with water:ACN (1:1 (v/v) with 0.1% ascorbic acid). The samples were sonicated for 5 min in an ice bath and shaken for 1 min (Vortex-Genie 2). Each homogenate was centrifuged for 10 min (11,000× g at 4 °C). […]

[2] = parameters: method as in PMID 33348608; conditions: in vivo, rats; cited from earlier work
[3] = parameters: method as in doi:10.1016/j.foodchem.2009.07.017; conditions: cited from earlier work
[4] = plasma, stomach, small intestine

Row | detection in plasma ([1]; plasma) | time of Cmax (highest concentration among the three sample times 1, 2, 4.5 h) ([1]; small intestine) | decrease of OLC concentration in the intestine ([1]; small intestine, 2 h post-ingestion) | decrease of OLC concentration in the intestine ([1]; small intestine, 4.5 h post-ingestion) | time of Cmax (highest concentration among the three sample times 1, 2, 4.5 h) ([1]; stomach) | decrease of OLC concentration in the stomach ([1]; 2 h post-ingestion, ROO with 0.3 mg/mL OLC by oral gavage 2.5 mL/300 g body weight) | decrease of OLC concentration in the stomach ([1]; 4.5 h post-ingestion) | Structure (SMILES) | plasma and tissues in which the compound was detected [1, 4] | intestinal absorption [2] | concentration in the aqueous phase (partition between the oily and aqueous phase) ([3]; digestion of dietary lipids, lipid–water emulsion) | stability in the gastric phase ([3]; in vitro digestion study)
1 | not found in the plasma | 1 h | 16% | 33% | 1 h | 36% | 74% | C/C=C(/C=O)[C@@H](CC=O)CC(=O)OCCc1ccc(O)cc1 [OLC, oleocanthal] | only detected in the stomach and small intestine samples | 16% | 68.7% | good OLC stability in the gastric phase
2 |  | 1 h |  |  | 1 h |  |  | OCCc1ccc(O)cc1 [TY, tyrosol] | only detected in the stomach and intestinal samples |  |  | 
